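Assay format: 96-well plates, 48-hour exposure. GI50 marks 50% less growth.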 The source made the active and inactive calls. Rule as the data show it: active = GI50 up to about 1.1 µM and inactive = higher.
Legend:
Assay in all cases: NCI-60 cell line screen, 48 h
UO-31 = test system: UO-31
COLO 205 = test system: COLO 205
HL-60 = test system: HL-60
SK-MEL-28 = test system: SK-MEL-28
CAKI-1 = test system: CAKI-1
SF-539 = test system: SF-539
NCI-H460 = test system: NCI-H460
RXF 393 = test system: RXF 393
A498 = test system: A498
OVCAR-3 = test system: OVCAR-3
NCI-H226 = test system: NCI-H226
HOP-62 = test system: HOP-62
SR = test system: SR
HCC 2998 = test system: HCC 2998
KM12 = test system: KM12

Measured: GI50

O=C(O)CN(c1ccccc1)S(=O)(=O)c1ccc(NC(=O)c2ccccc2)cc1
inactive: UO-31 > 100 µM | COLO 205 > 100 µM | HL-60 > 100 µM | SK-MEL-28 > 100 µM | CAKI-1 > 100 µM | SF-539 > 100 µM | NCI-H460 > 100 µM | RXF 393 > 100 µM | A498 > 100 µM

Cc1cc(=O)oc2cc(OCCCOc3ccc4c(C)cc(=O)oc4c3)ccc12
inactive: UO-31 > 100 µM | COLO 205 > 100 µM | HL-60 > 100 µM | SK-MEL-28 > 100 µM | OVCAR-3 > 100 µM | NCI-H226 > 100 µM | HOP-62 63.8 µM | SF-539 > 100 µM | NCI-H460 > 100 µM | RXF 393 > 100 µM | SR > 100 µM | A498 > 100 µM | HCC 2998 > 100 µM

CN(C)CCn1cnc2ncccc2c1=O
inactive: KM12 > 100 µM | UO-31 > 100 µM | COLO 205 > 100 µM | SK-MEL-28 > 100 µM | OVCAR-3 > 100 µM | CAKI-1 > 100 µM | NCI-H226 > 100 µM | HOP-62 > 100 µM | SF-539 > 100 µM | NCI-H460 > 100 µM | RXF 393 > 100 µM | SR > 100 µM | HCC 2998 > 100 µM

O=c1[nH]c(-c2ccccc2)nc2cc(Cl)ccc12
inactive: KM12 > 100 µM | UO-31 > 100 µM | HL-60 > 100 µM | SK-MEL-28 > 100 µM | OVCAR-3 > 100 µM | CAKI-1 > 100 µM | NCI-H226 73.3 µM | HOP-62 > 100 µM | SF-539 > 100 µM | NCI-H460 > 100 µM | RXF 393 > 100 µM | A498 > 100 µM | HCC 2998 > 100 µM

COC(=O)c1c(-c2cc(OC)c(OC)c(OC)c2)oc2ccccc2c1=O
inactive: KM12 > 100 µM | UO-31 66.4 µM | COLO 205 97.7 µM | HL-60 36.7 µM | OVCAR-3 75.9 µM | CAKI-1 75.3 µM | NCI-H226 > 100 µM | HOP-62 > 100 µM | SF-539 > 100 µM | NCI-H460 76.7 µM | RXF 393 53.6 µM | A498 > 100 µM | HCC 2998 > 100 µM

Cc1ccc(NC(=O)CCC(=O)C(C#N)c2ccc(Cl)cc2)cc1C (stereo not drawn)
inactive: KM12 > 100 µM | UO-31 > 100 µM | HL-60 > 100 µM | SK-MEL-28 > 100 µM | OVCAR-3 > 100 µM | CAKI-1 > 100 µM | NCI-H226 > 100 µM | HOP-62 > 100 µM | SF-539 > 100 µM | NCI-H460 > 100 µM | RXF 393 > 100 µM | A498 > 100 µM | HCC 2998 > 100 µM

CC1=C(C(=O)Nc2ccc([N+](=O)[O-])cc2)C(c2ccc3c(c2)OCO3)C(C(=O)Nc2ccc([N+](=O)[O-])cc2)=C(C)N1
inactive: KM12 3.8 µM | UO-31 6.4 µM | COLO 205 4.13 µM | SK-MEL-28 24.9 µM | OVCAR-3 6.43 µM | CAKI-1 23.7 µM | NCI-H226 14.7 µM | HOP-62 37.6 µM | SF-539 27.7 µM | NCI-H460 10 µM | RXF 393 25.3 µM | SR 1.98 µM | A498 14.2 µM | HCC 2998 7.05 µM

CC(C)NCC(O)COC(=O)c1cccs1 (stereo not drawn)
inactive: KM12 > 100 µM | UO-31 > 100 µM | COLO 205 > 100 µM | HL-60 > 100 µM | SK-MEL-28 > 100 µM | OVCAR-3 > 100 µM | CAKI-1 > 100 µM | HOP-62 > 100 µM | NCI-H460 > 100 µM | RXF 393 > 100 µM | HCC 2998 > 100 µM

O=C1NC(=O)C2C1C1C=C3c4ccccc4N(c4ccccc4)C32[C@H]2C(=O)NC(=O)[C@@H]12 (stereo partly drawn)
inactive: KM12 > 100 µM | UO-31 > 100 µM | COLO 205 > 100 µM | HL-60 > 100 µM | SK-MEL-28 > 100 µM | OVCAR-3 > 100 µM | CAKI-1 > 100 µM | NCI-H226 > 100 µM | HOP-62 > 100 µM | SF-539 > 100 µM | NCI-H460 > 100 µM | A498 > 100 µM | HCC 2998 > 100 µM

COc1ccc(O)c(C#N)c1C#N
inactive: KM12 > 100 µM | UO-31 > 100 µM | COLO 205 > 100 µM | HL-60 > 100 µM | OVCAR-3 > 100 µM | CAKI-1 > 100 µM | NCI-H226 > 100 µM | HOP-62 > 100 µM | SF-539 > 100 µM | NCI-H460 > 100 µM | RXF 393 > 100 µM | A498 > 100 µM | HCC 2998 > 100 µM

CN(C)CCNC(=O)Cc1ccccc1Nc1c(Cl)cccc1Cl
inactive: KM12 18.5 µM | UO-31 12.6 µM | COLO 205 16.4 µM | HL-60 14.7 µM | SK-MEL-28 18.5 µM | OVCAR-3 17.2 µM | NCI-H226 17.9 µM | HOP-62 15 µM | SF-539 16.5 µM | NCI-H460 10 µM | RXF 393 15.3 µM | SR 15.2 µM | HCC 2998 11.5 µM

Source: ChEMBL document CHEMBL1201862, “PubChem BioAssay data set” (2004)
